In patent US20260042802A1, “POLYPEPTIDE AND USE THEREOF” (priority 2024, published 2026):
Where a SMILES comes first, the peptide text is derived from it. Bridges are numbered along the chain shown (N, C = ends).

Columns and labels:
[1] = tested on: mouse acetate acid writhing model; assay: Mouse acetate acid writhing model; type: in vivo, C57BL/6 mice
From the text: Seventy SPF-grade healthy C57BL/6 mice, half male and half female, weighing 22-25 g and 8-10 weeks old, are randomly selected. Seventy C57BL/6 mice are weighed and numbered in ascending order of body weight (No. S1-S70). The mice are randomly divided into seven groups in terms of the randomized numerical table method, which are the saline group and the experimental groups, among which the experimental groups include the PPN-01 group, the PPN-04 group, the PPN-06 group, the PPN-11 group, the PPN-12 group, and the PPN-16 group. The dosing concentration (i.e., the concentration of added polypeptides PPN-01, PPN-04, PPN-06, PPN-11, PPN-12, and PPN-16) in each group is 10 mg/kg, with 10 mice in each group.
(§1) Saline Group: 10 healthy mice are routinely reared for one week; the saline is intraperitoneally injected once daily at a concentration of 10 ml/kg for 7 consecutive days; 15 min after the last injection is finished, 0.7% glacial acetic acid (10 ml/kg) is intraperitoneally injected; and each mouse is observed for their writhing behaviors.
Experimental Group: 10 healthy mice are routinely reared for one week; 10 ml/kg of different polypeptides are injected intraperitoneally at a concentration of 0.1 mL/10 g once daily for 7 consecutive days; 15 min after the last injection is finished, 0.7% glacial acetic acid (10 ml/kg) is intraperitoneally injected; and each mouse is observed for their behaviors in writhing.
During the above experiments, the time of first writhing (writhing latency) and the number of writhing in each mouse within 15 min are recorded immediately after the injection of glacial acetic acid solution in each group of mice. When behavioral responses such as inward concavity of the abdomen, extension of the torso and hind limbs, and elevation of the buttocks occur, it is considered to be a complete writhing response, and the results are shown in Table 3 and FIG. 6.
Forty SPF-grade healthy C57BL/6 mice, half male and half female, weighing 22-25 g and 8-10 weeks old, are randomly selected. Forty C57BL/6 mice are weighed and numbered in ascending order of body weight (No. 1 to No. 40). The mice are randomly divided into five groups according to the randomized numerical table method, namely, the saline group, the low-concentration group (2.5 mg/kg), the medium-concentration group (10 mg/kg), the high-concentration group (40 mg/kg), and the diclofenac sodium group (30 mg/kg), with eight mice in each group.
as §1, with “Group: 8” for “Group: 10”, “their behaviors in writhing. […]” for “their writhing behaviors.”

[2] = tested on: sciatic nerve in rats; assay: Compound action potential (CAP) of the sciatic nerve in rats; type: in vivo, Sprague-Dawley (SD) rats; conditions: 20 μL of 30, 100, 300 nM on sciatic nerve; before and after needling; vs negative control group (p<0.05)
Procedure: Four SPF-grade healthy Sprague-Dawley (SD) rats are randomly selected, half males and half females, weighing 180˜200 g, 6˜8 weeks old. The rats are first acclimatized and fed for 1 week, fasted for 12 h before the experiment, with free access to water.
Rats weighing between 180 g and 200 g are taken and anesthetized with 7% chloral hydrate solution at a concentration of 0.4 mL/100 g. […] Then, the fully anesthetized rats are placed on the operating table so that their backs are facing upwards and their paws are held in place with a string. The skin and connective tissue of the leg are cut sequentially, and the muscles between the biceps femoris and the gluteus superficialis are bluntly-dissected. […]
Observations are performed on rats in the polypeptide PPN-01 group and in the negative control drug lidocaine group, and the effect of each concentration of polypeptide PPN-01 on the peak amplitude of the positive and negative phases of the CAP in the sciatic nerve of rats is assessed by the inhibition rate. […]
Four to six CAPs within 2 min after each recording time period are selected for analysis, and the mean peak amplitude is calculated as the representative CAP peak amplitude and time course for each group, with the peak amplitude of the CAP being the difference between the baseline and the peak CAP.

[3] = 10 mg/kg i.p. once daily for 7 days, 0.7% glacial acetic acid 15 min after last injection, 10 mice

## CSCC[C@@H]1NC(=O)CNC(=O)[C@H](CCC(=O)O)NC(=O)[C@@H]2CSSC[C@H](NC(=O)[C@H](Cc3ccc(O)cc3)NC(C)=O)C(=O)N[C@@H](CCC(N)=O)C(=O)N[C@@H](CCCCN)C(=O)N[C@@H](Cc3ccccc3)C(=O)N[C@@H](CC(C)C)C(=O)N[C@@H](C)C(=O)N3CCC[C@H]3C(=O)N[C@H]3CSSC[C@H](NC(=O)[C@H](CCC(=O)O)NC1=O)C(=O)N[C@@H](CCCCN)C(=O)N[C@@H](CC(C)C)C(=O)N[C@@H](Cc1c[nH]c4ccccc14)C(=O)N[C@H](C(=O)N[C@@H](CCCCN)C(=O)N[C@@H](CCCCN)C(=O)N[C@@H](CCCCN)C(=O)N[C@@H](CC(C)C)C(=O)N[C@@H](Cc1c[nH]c4ccccc14)C(N)=O)CSSC[C@H](NC(=O)[C@H](CCCCN)NC(=O)[C@H](CCCNC(=N)N)NC(=O)[C@H](CCC(=O)O)NC(=O)[C@H](CO)NC(=O)[C@H](CC(=O)O)NC3=O)C(=O)N2 [PPN-01] (Ac-YCQKFLAPCDSERKCCEGMECKLWCKKKLW-NH2; disulfide 2-16, 9-21, 15-25)
[1]; [3]
  Number of writhing: 14.4 times/15 min
  Time of first writhing: 4.15 min
[1]; 10 mg/kg i.p., 7 days, compared with saline group
  analgesic effect on the mouse acetate acid writhing model: certain analgesic effect
[2]
  peak amplitude of CAP (positive and negative phases): significantly decreased
